Test results published in PMC5538626, “Structural and functional analysis of the GABARAP interaction motif (GIM)” (EMBO Reports, 2017).
Entries after “also recorded” stand apart in the source; their conditions may differ. Ends that are not written are not given here.

Legend:
[1] = target: LC3B; conditions: p62 LIR with LC3B; no method, no reference given; cited from earlier work
Source text: Finally, we wanted to apply and subsequently verify our findings by targeted mutation of established autophagy players: p62, FUNDC1 and FIP200. Due to their impact, we specifically substituted existing residues at positions X1 and Γ of LIRs either singly or in combination to valine, thus driving the LIR sequences towards our GIM consensus sequence (Fig 1).

[2] = test system: 6xHis-tagged LC3B and 6xHis-tagged GABARAP; assay: Peptide array, preference GABARAP versus LC3B (absorbance ratio); format: binding, human; conditions: absorbance GABARAP/LC3B or LC3B/GABARAP, cut-off 1.5-fold; mean of n = 3; Figs 1A, EV1B and C
Source text: A high number of autophagy receptors or adaptor structures have been reported, yet the basis for their selective interaction with individual members of the ATG8 family is not well understood. We speculated whether the LIR motif alone is able to confer selectivity towards a mATG8 subfamily and whether we could derive a subfamily consensus motif from analysis of known mATG8 interaction partners. To address this question, we screened an array of peptides (presented in Fig EV1A and described in Materials and Methods) with the LIR sequences of 30 known and validated autophagy receptors and adaptors (Table 1) against all six human mATG8s for binding (Figs 1A and EV1B and C). In brief, biotinylated peptides were immobilized on streptavidin‐coated 96‐well plates and incubated with His6‐tagged mATG8 proteins. After washing steps, peptide‐bound mATG8 was detected in an ELISA reader using anti‐His antibodies directly conjugated to HRP (horse radish peroxidase; Fig EV1A).
Dashed red line depicts 1.5‐fold change cut‐off.
Due to the wide range of affinities of various LIR sequences towards the LC3/GABARAP proteins, we have normalized our results by dividing values for LC3B interaction by the corresponding value for interaction with GABARAP (Fig 1A, purple bars) and vice versa (Fig 1A, blue bars) to highlight the potential subfamily selectivity of each LIR sequence tested. We classified ratios greater than 1.5‐fold as an indication of a preferential interaction towards that particular LC3 or GABARAP family member. […] Using this information, we generated a sequence plot (Fig 1B) to ascertain whether there were any common sequence features of the GABARAP‐specific interaction proteins. In addition to the 12 sequences identified in this experiment as preferential GABARAP subfamily interactors, we also included known GABARAP interactors that were not included in our screen (ALFY and KBTBD7). […] The previously identified PLEKHM1‐LIR 19 has a high degree of similarity to this sequence. […] However, it is unclear whether this is the case in vivo.
Biotinylated peptides (JPT, Germany) were immobilized on streptavidin‐coated 96‐well plates (#436014; Thermo Scientific) in 100 μl PBS containing 0.1% Tween‐20 (PT) and 1% BSA (PTB) overnight on a shaker at 8°C. After three washing steps with 200 μl PT, 100 μl of 1 μM HIS6‐tagged mATG fusion proteins isolated from E. coli in PTB was incubated with the immobilized peptides for 1 h at 8°C. After three washing steps with 200 μl PT, HIS6‐ATG8 bound to peptides was detected after 1‐h incubation with anti‐HIS‐HRP antibody (JP‐A00612; Genscript; 1:5,000 in 100 μl PTB) with the help of TMB substrate Reagent Set (BD OptEIA; 75 μl). The reaction (blue coloration) was stopped by addition of 60 μl 1 M H3PO4. Samples were analysed on a Synergy H1 ELISA reader from BioTek at 450 nm.

[3] = test system: all six mATG8 proteins; assay: Peptide array (ELISA), all six mATG8s; conditions: 450 nm, Fig 3E, n = 4
[4] = test system: all LC3s; conditions: GST pull-down; cited from earlier work
Source text: Due to the wide range of affinities of various LIR sequences towards the LC3/GABARAP proteins, we have normalized our results by dividing values for LC3B interaction by the corresponding value for interaction with GABARAP (Fig 1A, purple bars) and vice versa (Fig 1A, blue bars) to highlight the potential subfamily selectivity of each LIR sequence tested. We classified ratios greater than 1.5‐fold as an indication of a preferential interaction towards that particular LC3 or GABARAP family member.

[5] = test system: endogenous GABARAP; assay: Co-immunoprecipitation of 3xFlag-FIP200 with endogenous GABARAP, HEK293 cells; format: cell-based; conditions: HEK293, anti-Flag beads, Western blot; Fig 5B
Experimental: Blots were probed for the presence of endogenous GABARAP and LC3B proteins. • 3xFlag‐FIP200 WT, E703V, I705V, E703V/I705V and F702A/I705A were overexpressed in HEK293 cells and immunoprecipitated using anti‐Flag beads and subjected to SDS–PAGE and Western blotting. Blots were probed for the presence of endogenous GABARAP and LC3B proteins. • GFP‐FUNDC1 WT, E19V, L21V, E19V/L21V and Y18A/L21A were overexpressed in HEK293 cells and either treated with vehicle only (DMSO) or 20 μM CCCP for 2 h, lysed and GFP‐FUNDC1 immunoprecipitated using anti‐GFP beads (or anti‐RFP beads as control) and subjected to SDS–PAGE and Western blotting. Blots were probed for the presence of endogenous GABARAP and LC3B proteins.

[6] = test system: endogenous LC3B; assay: Co-immunoprecipitation of GFP-mCherry-p62/SQSTM1 with endogenous LC3B, HEK293 cells; format: cell-based; conditions: HEK293, basal conditions, anti-RFP beads, Western blot; Fig 5A
[7] = test system: endogenous GABARAP; assay: Co-immunoprecipitation of GFP-mCherry-p62/SQSTM1 with endogenous GABARAP, HEK293 cells; format: cell-based; conditions: HEK293, basal conditions, anti-RFP beads, Western blot; Fig 5A
[8] = test system: 6xHis-tagged LC3A; assay: Peptide array (ELISA), LC3A; conditions: fold change over WT, mean ± SEM n = 3, Fig EV5A
[9] = test system: GABARAP family (GABARAP, GABARAP-L1, GABARAP-L2); assay: Peptide array (ELISA), GABARAP family; conditions: fold change over WT, n = 3, Fig EV5A
[10] = test system: 6xHis-tagged LC3C; assay: Peptide array (ELISA), LC3C; conditions: fold change over WT, n = 3, Fig EV5A
[11] = test system: 6xHis-tagged LC3B; assay: Peptide array (ELISA), LC3B; conditions: fold change over WT, n = 3, Fig EV5A
[12] = test system: GFP-LC3/GABARAPs; assay: Co-immunoprecipitation of endogenous proteins with GFP-mATG8s in HeLa cells; conditions: 4 h KU-0063794 (10 μM) + chloroquine (20 μM), Fig 2C

DDDWTHLSS [p62/SQSTM1, LIR peptide 335–343, peptide array]
Kd [1]: ~1.5 µM | preference GABARAP versus LC3B [2]: slight preference for GABARAP

EDEWVNVQY [PLEKHM1, LIR peptide 632–640, peptide array]
ranking of mATG8 binding [3]: shows the most potent interaction, followed by GABARAP‐L1, ‐L2, LC3C and LC3A, with LC3B as the weakest interactor | preference GABARAP versus LC3B [2]: clear preference for binding to GABARAP and GABARAP‐L2 over LC3B and LC3C; also recorded: strong preference for GABARAP versus LC3 | interaction with LC3s [4]: can interact with all LC3s

FVTV: 3xFlag-FIP200 E703V/I705V
interaction of FIP200 with endogenous GABARAP [5]: enhance the interaction between FIP200 (LIR sequence FDFETIPH) and GABARAP

L341V: GFP-mCherry-p62/SQSTM1 L341V
interaction of p62/SQSTM1 with endogenous LC3B [6]: little effect on LC3/GABARAP‐specific interaction | interaction of p62/SQSTM1 with endogenous GABARAP [7]: mild effect; also recorded: little effect on LC3/GABARAP‐specific interaction

V638I: PLEKHM1-LIR array peptide V638I (EDEWVNIQY; also: biotin, position not given here)
interaction with LC3A, Θ and Γ mutants [8]: did not affect | interaction with GABARAP family, Θ and Γ mutants [9]: small decrease in the interaction | interaction with LC3C, Θ and Γ mutants [10]: did not affect | interaction with LC3B, Θ and Γ mutants [11]: increase the affinity

V638L: PLEKHM1-LIR array peptide V638L (EDEWVNLQY; also: biotin, position not given here)
interaction with LC3A, Θ and Γ mutants [8]: did not affect | interaction with GABARAP family, Θ and Γ mutants [9]: small decrease in the interaction | interaction with LC3C, Θ and Γ mutants [10]: did not affect | interaction with LC3B, Θ and Γ mutants [11]: increase the affinity

endogenous p62/SQSTM1: endogenous p62/SQSTM1 protein in HeLa cells
co-precipitation of endogenous protein with GFP-mATG8s [12]: co‐precipitated with all LC3/GABARAP to a similar extent
